Laboratory results from article PMC8068801, “Novel Benzenesulfonate Scaffolds with a High Anticancer Activity and G2/M Cell Cycle Arrest” (Cancers, 2021).

Assays:
U-251 cells [1] = test: Annexin V binding (apoptosis) assay, U-251; format: cell-based, human; conditions: U-251, 6 μM, 48 h
Procedure: The K562, U-251 and NHDF cells were seeded in 3 cm Petri dishes (Nunc) at a density of 250,000 cells per well and incubated at 37 °C for 24 h. Then, the medium was removed, and freshly prepared solutions of the tested compounds, BS1 and BS4 (two to three times the IC50 value), were added. After a 48 h incubation, the assays were performed using a FITC Annexin V Apoptosis Detection KIT with 7-AAD (Bio-Legend) according to the manufacturer’s instructions. Briefly, the cells were collected, washed twice with cold PBS and centrifuged at 300 g for 5 min. Next, the cells were resuspended in a 100 µL Annexin V Binding Buffer and incubated for 15 min at room temperature in the dark with 5 µL of FITC Annexin V and 5 µL 7-AAD Viability Staining Solution. After immunostaining, the number of events for live, early and late apoptotic cells were determined using a Muse Cell Analyzer. The experiments were performed at least four times.

purified bovine tubulin = test: In vitro tubulin polymerization assay; format: biochemical; conditions: 10 µM; turbidity at 350 nm, maximum absorbance
Procedure: The effect of small-molecule compounds on tubulin polymerization was monitored using an In Vitro Tubulin Polymerization Kit (≥99% Pure Bovine Tubulin) (Millipore) following the manufacturer’s protocol. Briefly, the tested compounds, BS1 and BS4, as well as reference drugs, paclitaxel (enhancer of polymerization) and nocodazole (inhibitor of polymerization) at a concentration of 10 µM were mixed with purified bovine tubulin (60 μM) and polymerization buffer with GTP (1 mM) on 96-well plate on ice. Then, the plate was transferred into the multi-plate reader (Synergy 4) chamber (heated to 37 °C) and measured the turbidity variation every 30 s at 350 nm during 90 min. The experiments were performed three times.

K562 cells [2] = test: Autophagy assay (Muse LC3-antibody kit), K562; format: cell-based, human; conditions: K562, 0.5 μM, vs control
Procedure: (§1) The K562 and U-251 cells were seeded in 96-well plates (Nunc) and incubated at 37 °C for 24 h. The density of the cells was 20,000 cells per well (for the 24 h assay) and 10,000 per well (for the 48 h assay). […] After treatment, the assays were performed using a Muse™ Autophagy LC3-antibody based kit (Millipore) according to the manufacturer’s instructions. Briefly, the cells were collected, washed with cold HPBS and centrifuged at 300 g for 5 min. […] The samples were incubated on ice for 30 min in the dark. After incubation, the cells were centrifuged and resuspended in 200 μL of a 1X Assay Buffer. Then, the samples were directly processed to analyze the autophagy induction using a Muse Cell Analyzer. The autophagy induction ratio was calculated on the basis of the ratio between the target sample fluorescence versus the control sample. The experiments were performed at least three times.

K562 cells [3] = test: Immunoblotting with densitometry, K562; format: cell-based, human; conditions: 24 h; for PARP/Reference 89 kDa, densitometric intensity ratio / caspase-9/Reference 37-35 kDa, densitometric intensity ratio: control 0.167; for AIF/Reference 67 kDa, densitometric intensity ratio / BID/Reference 22 kDa, densitometric intensity ratio / PARP/Reference 116 kDa, densitometric intensity ratio / caspase-9/Reference 47 kDa, densitometric intensity ratio / cdc2/Reference 34 kDa, densitometric intensity ratio / cyclin E1/Reference 48 kDa, densitometric intensity ratio: control 1.000
Procedure: The K562 and U-251 cells were seeded in 3 cm Petri dishes (Nunc) at a density of 500,000 cells per well and incubated overnight. […] Next, the cell pellets were resuspended in an RIPA buffer containing a Halt Protease Inhibitor Cocktail and a Halt Phosphatase Inhibitor Cocktail along with 0.5 M EDTA (all from Thermo Scientific, Waltham, MA, USA) and lysed on ice for 20 min. Then, the obtained lysates were sonicated and centrifuged at 10,000 rpm for 10 min at 4 °C. The supernatants were collected for further analysis. The protein concentration was measured using a Micro BCA™ Protein Assay Kit (Thermo Scientific) according to the manufacturer’s instructions. Equal amounts of the proteins (16 μg) were electrophoresed on SDS-Page gels and transferred onto nitrocellulose membranes. The membranes were blocked in 5% non-fat milk prepared in TPBS (PBS containing 0.1% Tween-20) for 1 h. After blocking, the membranes were incubated with the specific primary antibodies (all from Cell Signaling) at a 1:1000 dilution—cyclin E, cdc2, PARP, AIF, BID, p53, p21^Waf1/Cip1, HIF-1α, cathepsin B and caspase-9—and at a 1:2000 dilution for the reference proteins—vinculin, β-actin and GAPDH—overnight at 4 °C. The next day, the membranes were washed in TPBS and incubated with horseradish peroxidase (HRP)-conjugated secondary antibodies for 1 h at room temperature. Lastly, the membranes were washed in TPBS and incubated with a SuperSignal™ West Pico Chemiluminescent Substrate (Thermo Scientific). The chemiluminescence signals were captured using a ChemiDoc™ XRS + System (Biorad). The experiments were performed at least four to five times. The densitometric analysis was conducted using ImageJ software (Wayne Rasband, National Institutes of Health, Bethesda, MD, USA).
The band intensity of tested proteins (p53, cyclin E1, cdc2, p21, HIF-1α, cathepsin b, PARP, caspase-9, BID, AIF) were analyzed by densitometry readings/intensity ratio, using ImageJ software (NIH) and were normalized to the corresponding reference proteins (GAPDH, vinculin or β-actin) value.
The densitometric readings/intensity ratio data from four/five independent experiments (compared to control): […]
p53/ Refer- p21/ Refer- cdc2/ Refer- Cyclin E1/ HIF-1α/ Cathepsin b/Reference ence ence ence Reference Reference
PARP/Reference BID/ Reference Caspase-9/Reference […]
cdc2/ Reference cyclin E1/ Reference AIF/ Reference BID/ Reference

U-251 cells [4] = test: Autophagy assay (Muse LC3-antibody kit), U-251; format: cell-based, human; conditions: U-251, 4 μM, 24 h; vs control
Procedure: as §1

Compound | PARP/Reference 89 kDa, densitometric intensity ratio (K562 cells [3]; K562, 0.35µM) | caspase-9/Reference 37-35 kDa, densitometric intensity ratio (K562 cells [3]; K562, 0.35µM) | AIF/Reference 67 kDa, densitometric intensity ratio (K562 cells [3]; K562, 0.35µM) | BID/Reference 22 kDa, densitometric intensity ratio (K562 cells [3]; K562, 0.35µM) | PARP/Reference 116 kDa, densitometric intensity ratio (K562 cells [3]; K562, 0.35µM) | caspase-9/Reference 47 kDa, densitometric intensity ratio (K562 cells [3]; K562, 0.35µM) | cdc2/Reference 34 kDa, densitometric intensity ratio (K562 cells [3]; K562, 0.35µM) | cyclin E1/Reference 48 kDa, densitometric intensity ratio (K562 cells [3]; K562, 0.35µM) | PARP/Reference 89 kDa, densitometric intensity ratio (K562 cells [3]; K562, 0.5µM) | caspase-9/Reference 37-35 kDa, densitometric intensity ratio (K562 cells [3]; K562, 0.5µM) | AIF/Reference 67 kDa, densitometric intensity ratio (K562 cells [3]; K562, 0.5µM) | BID/Reference 22 kDa, densitometric intensity ratio (K562 cells [3]; K562, 0.5µM) | PARP/Reference 116 kDa, densitometric intensity ratio (K562 cells [3]; K562, 0.5µM) | caspase-9/Reference 47 kDa, densitometric intensity ratio (K562 cells [3]; K562, 0.5µM) | cdc2/Reference 34 kDa, densitometric intensity ratio (K562 cells [3]; K562, 0.5µM) | cyclin E1/Reference 48 kDa, densitometric intensity ratio (K562 cells [3]; K562, 0.5µM) | also measured
COc1ccccc1/C=C/c1nc(OS(=O)(=O)c2ccc3c(c2)OCO3)c2ccccc2n1 [BS1, 2-((E)-2-(2-methoxyphenyl)ethenyl)quinazolin-4-yl 1,3-benzodioxole-5-sulfonate] | 2.111 | 1.287 | 3.809 | 1.049 | 1.793 | 1.109 | 1.234 | 1.273 | 2.156 | 1.368 | 2.737 | 0.695 | 1.646 | 1.627 | 1.122 | 1.110 | Early apoptotic cells, mean ± SD (U-251 cells [1]): 39.80%; Late apoptotic cells, mean ± SD (U-251 cells [1]): 11.40%; Enhancement of tubulin polymerization, increase compared to control (purified bovine tubulin): about 47%; Autophagy induction ratio (K562 cells [2]; 24 h): 2.26; Autophagy induction ratio (K562 cells [2]; 48 h): 1.96; Cleavage caspase-9 proteins (Western blot) (K562 cells [3]; K562, 0.35 µM): more than six-fold increase
COc1ccccc1/C=C/c1nc(OS(=O)(=O)c2cc3c(cc2Br)OCO3)c2ccccc2n1 [BS2, 2-((E)-2-(2-methoxyphenyl)ethenyl)quinazolin-4-yl 6-bromo-1,3-benzodioxole-5-sulfonate] | 0.494 | 1.268 | 4.141 | 0.965 | 1.556 | 1.108 | 1.338 | 1.640 | 0.811 | 1.113 | 4.160 | 0.762 | 1.665 | 1.104 | 1.206 | 1.270 | –
COc1ccccc1/C=C/c1nc(OS(=O)(=O)c2ccc(C)cc2)c2ccccc2n1 [BS4, 2-((E)-2-(2-methoxyphenyl)ethenyl)quinazolin-4-yl 4-methylbenzenesulfonate] | – | – | – | – | – | – | – | – | – | – | – | – | – | – | – | – | Autophagy induction ratio (U-251 cells [4]): 5.03
